From the NIST ThermoML archive (doi:10.1016/j.fluid.2017.12.037)

Assay: xn = mol fraction of the nth substance listed
Conditions: Gas, Buoyancy - hydrostatic balance with magnetic suspension - one sinker

C=C(F)C(F)(F)F [2,3,3,3-tetrafluoro-1-propene] + FCF
Conditions	mass density [kg/m3]
279.8 K, 225 kPa, x1 = 0.202	6.518
279.81 K, 366 kPa, x1 = 0.202	10.881
279.82 K, 422 kPa, x1 = 0.61	18.046
279.82 K, 531 kPa, x1 = 0.202	16.362
279.99 K, 139 kPa, x1 = 0.61	5.52
280 K, 292 kPa, x1 = 0.61	12.065
289.13 K, 223 kPa, x1 = 0.202	6.201
289.13 K, 326 kPa, x1 = 0.202	9.243
289.13 K, 498 kPa, x1 = 0.202	14.57
289.14 K, 652 kPa, x1 = 0.202	19.613
289.24 K, 435 kPa, x1 = 0.61	17.849
289.25 K, 300 kPa, x1 = 0.61	11.915
289.27 K, 142 kPa, x1 = 0.61	5.456
289.35 K, 825 kPa, x1 = 0.062	21.899
289.47 K, 272 kPa, x1 = 0.062	6.547
289.52 K, 465 kPa, x1 = 0.062	11.568
298.56 K, 1030 kPa, x1 = 0.062	27.002
298.65 K, 448 kPa, x1 = 0.61	17.642
298.65 K, 795 kPa, x1 = 0.062	19.996
298.67 K, 524 kPa, x1 = 0.062	12.632
298.68 K, 146 kPa, x1 = 0.61	5.4
298.68 K, 314 kPa, x1 = 0.062	7.355
298.7 K, 309 kPa, x1 = 0.61	11.815
298.95 K, 208 kPa, x1 = 0.366	6.462
298.96 K, 416 kPa, x1 = 0.366	13.396
298.97 K, 629 kPa, x1 = 0.366	21.025
299.11 K, 197 kPa, x1 = 0.202	5.25
299.11 K, 460 kPa, x1 = 0.202	12.798
299.11 K, 653 kPa, x1 = 0.202	18.744
299.11 K, 817 kPa, x1 = 0.202	24.131
308.21 K, 285 kPa, x1 = 0.062	6.408
308.21 K, 465 kPa, x1 = 0.062	10.702
308.21 K, 692 kPa, x1 = 0.062	16.408
308.21 K, 839 kPa, x1 = 0.062	20.316
308.21 K, 1102 kPa, x1 = 0.062	27.74
308.23 K, 1301 kPa, x1 = 0.062	33.802
308.29 K, 170 kPa, x1 = 0.61	6.134
308.3 K, 340 kPa, x1 = 0.61	12.602
308.32 K, 577 kPa, x1 = 0.61	22.346
308.33 K, 769 kPa, x1 = 0.61	30.942
308.47 K, 201 kPa, x1 = 0.366	6.029
308.47 K, 387 kPa, x1 = 0.366	11.937
308.47 K, 560 kPa, x1 = 0.366	17.726
308.47 K, 794 kPa, x1 = 0.366	26.137
308.69 K, 226 kPa, x1 = 0.202	5.868
308.69 K, 390 kPa, x1 = 0.202	10.341
308.69 K, 569 kPa, x1 = 0.202	15.462
308.7 K, 735 kPa, x1 = 0.202	20.457
308.7 K, 1050 kPa, x1 = 0.202	30.682
317.75 K, 163 kPa, x1 = 0.062	3.497
317.75 K, 406 kPa, x1 = 0.062	8.95
317.75 K, 648 kPa, x1 = 0.062	14.699
317.75 K, 910 kPa, x1 = 0.062	21.311
317.75 K, 1331 kPa, x1 = 0.062	32.968
317.78 K, 1625 kPa, x1 = 0.062	42.032
317.89 K, 139 kPa, x1 = 0.61	4.816
317.89 K, 309 kPa, x1 = 0.61	11.009
317.9 K, 527 kPa, x1 = 0.61	19.436
317.92 K, 735 kPa, x1 = 0.61	28.033
317.92 K, 929 kPa, x1 = 0.61	36.73
318.29 K, 219 kPa, x1 = 0.202	5.48
318.29 K, 398 kPa, x1 = 0.202	10.192
318.29 K, 586 kPa, x1 = 0.202	15.349
318.29 K, 790 kPa, x1 = 0.202	21.254
318.29 K, 1058 kPa, x1 = 0.202	29.49
318.3 K, 1336 kPa, x1 = 0.202	38.819
318.53 K, 165 kPa, x1 = 0.366	4.746
318.53 K, 351 kPa, x1 = 0.366	10.354
318.53 K, 563 kPa, x1 = 0.366	17.123
318.53 K, 766 kPa, x1 = 0.366	23.969
318.53 K, 1009 kPa, x1 = 0.366	32.745
327.52 K, 157 kPa, x1 = 0.61	5.289
327.52 K, 329 kPa, x1 = 0.61	11.37
327.52 K, 536 kPa, x1 = 0.61	19.029
327.53 K, 930 kPa, x1 = 0.61	35.068
327.54 K, 1122 kPa, x1 = 0.61	43.758
327.55 K, 734 kPa, x1 = 0.61	26.847
328.33 K, 223 kPa, x1 = 0.062	4.64
328.34 K, 637 kPa, x1 = 0.062	13.854
328.34 K, 945 kPa, x1 = 0.062	21.307
328.34 K, 1335 kPa, x1 = 0.062	31.333
328.34 K, 1696 kPa, x1 = 0.062	41.656
328.34 K, 2027 kPa, x1 = 0.062	52.145
328.43 K, 227 kPa, x1 = 0.202	5.515
328.43 K, 367 kPa, x1 = 0.202	9.049
328.43 K, 626 kPa, x1 = 0.202	15.83
328.43 K, 849 kPa, x1 = 0.202	22.032
328.43 K, 1140 kPa, x1 = 0.202	30.631
328.43 K, 1427 kPa, x1 = 0.202	39.78
328.43 K, 1696 kPa, x1 = 0.202	49.141
328.58 K, 1144 kPa, x1 = 0.366	36.066
328.58 K, 1280 kPa, x1 = 0.366	41.182
328.6 K, 618 kPa, x1 = 0.366	18.221
328.6 K, 894 kPa, x1 = 0.366	27.268
328.61 K, 203 kPa, x1 = 0.366	5.679
328.61 K, 380 kPa, x1 = 0.366	10.866
337.94 K, 261 kPa, x1 = 0.062	5.321
337.94 K, 1368 kPa, x1 = 0.062	30.983
337.95 K, 1030 kPa, x1 = 0.062	22.524
337.95 K, 1871 kPa, x1 = 0.062	44.844
337.95 K, 2216 kPa, x1 = 0.062	54.98
338.06 K, 1097 kPa, x1 = 0.202	27.951
338.06 K, 1440 kPa, x1 = 0.202	38.107
338.06 K, 1722 kPa, x1 = 0.202	47.144
338.06 K, 2012 kPa, x1 = 0.202	57.214
338.07 K, 229 kPa, x1 = 0.202	5.349
338.07 K, 435 kPa, x1 = 0.202	10.38
338.07 K, 663 kPa, x1 = 0.202	16.152
338.07 K, 900 kPa, x1 = 0.202	22.468
338.13 K, 157 kPa, x1 = 0.61	5.11
338.13 K, 347 kPa, x1 = 0.61	11.583
338.13 K, 545 kPa, x1 = 0.61	18.632
338.14 K, 742 kPa, x1 = 0.61	26.034
338.14 K, 949 kPa, x1 = 0.61	34.303
338.15 K, 1176 kPa, x1 = 0.61	43.906
338.15 K, 1363 kPa, x1 = 0.61	52.402
338.27 K, 391 kPa, x1 = 0.366	10.828
338.27 K, 1611 kPa, x1 = 0.366	51.607
338.28 K, 203 kPa, x1 = 0.366	5.523
338.28 K, 605 kPa, x1 = 0.366	17.163
338.28 K, 888 kPa, x1 = 0.366	25.992
338.28 K, 1124 kPa, x1 = 0.366	33.805
338.28 K, 1339 kPa, x1 = 0.366	41.354
346.7 K, 514 kPa, x1 = 0.202	11.999
346.7 K, 754 kPa, x1 = 0.202	17.999
346.7 K, 1075 kPa, x1 = 0.202	26.432
346.71 K, 102 kPa, x1 = 0.202	2.301
346.71 K, 314 kPa, x1 = 0.202	7.219
346.71 K, 1395 kPa, x1 = 0.202	35.395
346.71 K, 1836 kPa, x1 = 0.202	48.831
346.71 K, 2339 kPa, x1 = 0.202	66.017
346.72 K, 2053 kPa, x1 = 0.202	55.971
347.61 K, 2249 kPa, x1 = 0.062	52.666
347.62 K, 600 kPa, x1 = 0.062	12.06
347.62 K, 1099 kPa, x1 = 0.062	23.044
347.62 K, 1445 kPa, x1 = 0.062	31.254
347.62 K, 2663 kPa, x1 = 0.062	65.472
347.8 K, 256 kPa, x1 = 0.61	8.159
347.81 K, 464 kPa, x1 = 0.61	15.105
347.81 K, 667 kPa, x1 = 0.61	22.236
347.81 K, 880 kPa, x1 = 0.61	30.083
347.81 K, 1108 kPa, x1 = 0.61	38.968
347.81 K, 1320 kPa, x1 = 0.61	47.76
347.81 K, 1481 kPa, x1 = 0.61	54.813
347.81 K, 1715 kPa, x1 = 0.61	65.61
347.93 K, 143 kPa, x1 = 0.366	3.726
347.93 K, 390 kPa, x1 = 0.366	10.422
347.93 K, 675 kPa, x1 = 0.366	18.538
347.93 K, 897 kPa, x1 = 0.366	25.186
347.93 K, 1198 kPa, x1 = 0.366	34.699
347.93 K, 1496 kPa, x1 = 0.366	44.776
347.93 K, 1753 kPa, x1 = 0.366	54.093
347.94 K, 2000 kPa, x1 = 0.366	63.729
